Assay results as given in patent publication US20220193060A1, “Inhibition of IL-1 Induced Inflammation” (THIOLAB, LLC., priority 2019, published 2022).

System: wasp sting
Assay: Case: topical CPDS cream for wasp sting
Type: in vivo, human
Conditions: topical cream containing 2% CPDS by weight
Protocol: An individual was stung by a wasp on their hand. […] Application of CPDS cream was repeated after two hours and every 4 hours thereafter. The swelling and redness vanished after 24 hours.

`O=C(O)c1ccc(SSc2ccc(C(=O)O)cn2)nc1` [CPDS, 6,6′-dithiodinicotinic acid] was tested, and the burning and itching (person) was “immediate relief” and the “time until swelling and redness vanished” value was 24 h.
